{"source": "patent US6713476B2", "about": "“Substituted cycloalkyls as inhibitors of a beta protein production” (Dupont Pharmaceuticals Company, priority 2000, dated 2004)"}
{"smiles": "CN1C(=O)[C@@H](NC(=O)C2(CNC3CCCCC3)CCCC2)N=C(c2ccccc2)c2ccccc21", "values": [{"measurement": "melting point", "result": "82 to 86", "unit": "°C"}]}
